Reference: US12344610B2, “APOL1 inhibitors and methods of use” (Maze Therapeutics, Inc., priority 2022, dated 2025)

Each molecule was assayed on human immortalized podocytes inducibly expressing APOL1 G2 (assay: APOL1 G2 podocyte cell rescue assay (Example B4)). Settings: Homo sapiens, differentiated human podocytes, doxycycline-induced APOL1 G2, CellTiter-Glo; geometric mean of at least 2 runs; † = single run.
Format: cell-based
How it was run: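 Differentiated hTERT-immortalized podocytes (clone D10) with doxycycline-inducible C-terminally HiBiT-tagged APOL1 G2, 6,000 cells/well, treated with doxycycline plus 8-point 3-fold compound series (0.4% DMSO) for 95 h at 37 °C. Viability by CellTiter-Glo luminescence; EC50 as geometric mean of ≥2 runs, each in duplicate.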

Q: `CC(C)[C@]1(O)C[C@@H](N2C(=O)CCc3cc(OCCN4CCC5(CC4)C(=O)Nc4ccc(Cl)cc45)cnc32)C1` [Compound 317, 5-chloro-1′-[2-({7-oxo-8-[(cis)-3-hydroxy-3-(propan-2-yl)cyclobutyl]-5,6,7,8-tetrahydro-1,8-naphthyridin-3-yl}oxy)ethyl]-1,2-dihydrospiro[indole-3,4′-piperidin]-2-one] was tested. Which EC50 did it give?
A: 2.92 nM

Q: How did the EC50 turn out when `CC1(O)CC(c2ncc(OCCN3CCC4(CC3)C(=O)Nc3ccc(Cl)cc34)cn2)C1` (single isomer, unassigned) [Compound 393, 5-chloro-1′-[2-({2-[(cis) or (trans)-3-hydroxy-3-methylcyclobutyl]pyrimidin-5-yl}oxy)ethyl]-1,2-dihydrospiro[indole-3,4′-piperidin]-2-one] was run?
A: 23 nM

Q: For `C[C@]1(O)C[C@@H](n2cnc3cc(OCCN4CCC5(CC4)C(=O)Nc4ccc(Cl)cc45)cc(F)c32)C1` [Compound 454, 5-chloro-1′-(2-((7-fluoro-1-((cis)-3-hydroxy-3-methylcyclobutyl)-1H-benzo[d]imidazol-5-yl)oxy)ethyl)spiro[indoline-3,4′-piperidin]-2-one], which EC50 is on record?
A: 4.34 nM

Q: How did the EC50 turn out when `C[C@]1(O)C[C@@H](N2C(=O)Cc3cc(OCCN4CCC5(CC4)C(=O)Nc4ccc(C(F)F)cc45)cnc32)C1` [Compound 346, 5-(difluoromethyl)-1′-[2-({2-oxo-1-[(cis)-3-hydroxy-3-methylcyclobutyl]-1H,2H,3H-pyrrolo[2,3-b]pyridin-5-yl]oxy)ethyl]-1,2-dihydrospiro[indole-3,4′-piperidin]-2-one] was run?
A: 38.8 nM

Q: How did the EC50 turn out when `C[C@]1(O)C[C@@H](n2c(=O)oc3cc(OCCN4CCC5(CC4)C(=O)Nc4ccc(Cl)cc45)cnc32)C1` [Compound 394, 5-chloro-1′-[2-({2-oxo-3-[(cis)-3-hydroxy-3-methylcyclobutyl]-2H,3H-[1,3]oxazolo[4,5-b]pyridin-6-yl}oxy)ethyl]-1,2-dihydrospiro[indole-3,4′-piperidin]-2-one] was run?
A: 16.9 nM

Q: How did the EC50 turn out when `C[C@]1(O)C[C@@H](n2ncc3cc(OCCN4CCC5(CC4)C(=O)Nc4ccc(Cl)cc45)cnc32)C1` (single isomer, unassigned) [Compound 357, 5-chloro-1′-[2-({1-[(cis)-3-hydroxy-3-methylcyclobutyl]-1H-pyrazolo[3,4-b]pyridin-5-yl}oxy)ethyl]-1,2-dihydrospiro[indole-3,4′-piperidin]-2-one] was run?
A: 4.04 nM

Q: With `C[C@]1(O)C[C@@H](n2ccc3cc(OCCN4CCC5(CC4)C(=O)Nc4ccc(C(F)F)cc45)cnc32)C1` [Compound 350, 5-(difluoromethyl)-1′-[2-({1-[(cis)-3-hydroxy-3-methylcyclobutyl]-1H-pyrrolo[2,3-b]pyridin-5-yl}oxy)ethyl]-1,2-dihydrospiro[indole-3,4′-piperidin]-2-one] as the molecule, how does the EC50 read?
A: 10.3 nM

Q: How did the EC50 turn out when `C[C@]1(O)C[C@H](n2ncc3cc(OCCN4CCC5(CC4)C(=O)Nc4ccc(Cl)cc45)cnc32)C1` (single isomer, unassigned) [Compound 408, 5-chloro-1′-[2-({1-[(trans)-3-hydroxy-3-methylcyclobutyl]-1H-pyrazolo[3,4-b]pyridin-5-yl}oxy)ethyl]-1,2-dihydrospiro[indole-3,4′-piperidin]-2-one] was run?
A: 7.05 nM

Q: Which EC50 does the source give for `C[C@]1(O)C[C@@H](n2ncc3cc(OCCN4CCC5(CC4)C(=O)Nc4ccc(Cl)cc45)cc(C(F)(F)F)c32)C1` [Compound 464, 5-chloro-1′-[2-({1-[(cis)-3-hydroxy-3-methylcyclobutyl]-7-(trifluoromethyl)-1H-indazol-5-yl}oxy)ethyl]-1,2-dihydrospiro[indole-3,4′-piperidin]-2-one] here?
A: 0.659 nM

Q: Which EC50 does the source give for `C[C@]1(O)C[C@@H](n2cnc3cc(OCCN4CCC5(CC4)C(=O)Nc4ccc(Cl)cc45)cc(C#N)c32)C1` [Compound 439, 5-(2-{5-chloro-2-oxo-1,2-dihydrospiro[indole-3,4′-piperidin]-1′-yl}ethoxy)-1-[(cis)-3-hydroxy-3-methylcyclobutyl]-1H-1,3-benzodiazole-7-carbonitrile] here?
A: 3.92 nM
